Legend:
[1] = system: Mycosphaerella graminicola (Septoria tritici); test: Mycosphaerella graminicola (Septoria tritici) / liquid culture (Septoria blotch); type: cell-based; details: Zymoseptoria tritici, growth inhibition photometrically 4-5 days after application, compared to untreated control
[2] = system: Glomerella lagenarium (Colletotrichum lagenarium); test: Glomerella lagenarium (Colletotrichum lagenarium) / liquid culture (Anthracnose); type: cell-based; details: Colletotrichum orbiculare, growth inhibition photometrically 3-4 days after application, compared to untreated control
[3] = system: Botryotinia fuckeliana (Botrytis cinerea); test: Botryotinia fuckeliana (Botrytis cinerea) / liquid culture (Gray mould); type: cell-based; details: growth inhibition photometrically 3-4 days after application, compared to untreated control
[4] = system: Monographella nivalis (Microdochium nivale); test: Monographella nivalis (Microdochium nivale) / liquid culture (foot rot cereals); type: cell-based; details: 96 h, growth inhibition photometrically 4-5 days after application, compared to untreated control
[5] = system: Fusarium culmorum; test: microbe, parasite or virus in culture; type: cell-based; details: read-out: control of Fusarium culmorum
[6] = system: Magnaporthe grisea (Pyricularia oryzae); test: whole plant or invertebrate; type: in vivo; details: foliar, read-out: control of Magnaporthe grisea
[7] = system: Gaeumannomyces graminis; test: Gaeumannomyces graminis / liquid culture (Take-all of cereals); type: cell-based; details: growth inhibition photometrically 4-5 days after application, compared to untreated control
[8] = system: Magnaporthe grisea (Pyricularia oryzae); test: microbe, parasite or virus in culture; type: cell-based; details: read-out: control of Magnaporthe grisea
[9] = system: Sclerotinia sclerotiorum; test: Sclerotinia sclerotiorum / liquid culture (cottony rot); details: read-out: control of Sclerotinia sclerotiorum
Description: Sclerotinia sclerotiorum/Liquid Culture (Cottony Rot)
Mycelia fragments of a newly grown liquid culture of the fungus are directly mixed into 5 nutrient broth (Vogels broth). After placing a (DMSO) solution of test compound into a microtiter plate (96-well format) the nutrient broth containing the fungal material is added. The test plates are incubated at 24° C. and the inhibition of growth is determined photometrically 3-4 days after application.

Row | SMILES | inhibition of growth at 20 ppm [1] [%] | inhibition of growth at 20 ppm [2] [%] | inhibition of growth at 20 ppm [3] [%] | inhibition of growth at 20 ppm [4] [%] | inhibition of growth at 20 ppm [5] [%] | pest or weed control at 200 ppm [6] [%] | inhibition of growth at 20 ppm [7] [%] | inhibition of growth at 60 ppm [8] [%] | melting point [°C] | inhibition of growth at 20 ppm [9] [%]
1 | CC1(C)N=C(c2cnc3c(C4CC4)cccn23)c2cccc(F)c2C1(C)C [Compound E-22, 1-(8-cyclopropylimidazo[1,2-a]pyridin-3-yl)-5-fluoro-3,3,4,4-tetramethyl-isoquinoline] | ≥ 80 | ≥ 80 | ≥ 80 | ≥ 80 |  |  |  |  |  | 
2 | Cc1cccn2c(C3=NC(C)(C)C(F)(F)c4c(F)cccc43)cnc12 [Compound E-39, 4,4,5-trifluoro-3,3-dimethyl-1-(8-methylimidazo[1,2-a]pyridin-3-yl)isoquinoline] | ≥ 80 | ≥ 80 | ≥ 80 | ≥ 80 | ≥ 80 | ≥ 50 | ≥ 80 |  |  | 
3 | CC1(C)N=C(c2cnc3cc(I)ccn23)c2cccc(F)c2C1(C)C [Compound E-44, 5-fluoro-1-(7-iodoimidazo[1,2-a]pyridin-3-yl)-3,3,4,4-tetramethyl-isoquinoline] | ≥ 80 | ≥ 80 | ≥ 80 | ≥ 80 | ≥ 80 |  |  |  |  | 
4 | Cc1ccn2c(C3=NC(C)(C)C(C)(C)c4c(F)cccc43)cnc2c1C [Compound E-50, 1-(7,8-dimethylimidazo[1,2-a]pyridin-3-yl)-5-fluoro-3,3,4,4-tetramethyl-isoquinoline] |  | ≥ 80 | ≥ 80 |  | ≥ 80 |  |  | ≥ 80 | 185 to 186 | ≥ 80
5 | Cc1cccn2c(C3=NCC(C)(C)c4ccccc43)cnc12 [Compound E-51, 4,4-dimethyl-1-(8-methylimidazo[1,2-a]pyridin-3-yl)-3H-isoquinoline] |  |  | ≥ 80 |  |  |  |  | ≥ 80 |  | ≥ 80
6 | Cc1cccn2c(C3=NC4(CCC4)Cc4ccccc43)cnc12 [Compound E-52, 1-(8-methylimidazo[1,2-a]pyridin-3-yl)spiro[4H-isoquinoline-3,1′-cyclobutane]] |  | ≥ 80 | ≥ 80 | ≥ 80 |  |  |  | ≥ 80 |  | ≥ 80
7 | Cc1ccn2c(C3=NC(C)(C)C(F)(F)c4ccccc43)cnc2c1 [Compound E-55, 4,4-difluoro-3,3-dimethyl-1-(7-methylimidazo[1,2-a]pyridin-3-yl)isoquinoline] |  | ≥ 80 | ≥ 80 |  | ≥ 80 |  |  | ≥ 80 |  | ≥ 80
8 | Cc1ccn2c(C3=NC(C)(C)C(F)(F)c4ccccc43)cnc2c1C [Compound E-57, 1-(7,8-dimethylimidazo[1,2-a]pyridin-3-yl)-4,4-difluoro-3,3-dimethyl-isoquinoline] |  | ≥ 80 | ≥ 80 | ≥ 80 | ≥ 80 | ≥ 50 |  | ≥ 80 | 159 to 161 | ≥ 80
9 | Cc1ccc2c(C3=NC(C)(C)C(=O)c4ccccc43)cnn2c1C [Compound E-64, 1-(6,7-dimethylpyrazolo[1,5-a]pyridin-3-yl)-3,3-dimethyl-isoquinolin-4-one] |  | ≥ 80 | ≥ 80 | ≥ 80 | ≥ 80 |  | ≥ 80 | ≥ 80 | 152 to 153 | ≥ 80
10 | Cc1ccc2c(C3=NC(C)(C)C(F)(F)c4ccccc43)cnn2c1C [Compound E-65, 1-(6,7-dimethylpyrazolo[1,5-a]pyridin-3-yl)-4,4-difluoro-3,3-dimethyl-isoquinoline] |  | ≥ 80 | ≥ 80 | ≥ 80 | ≥ 80 |  | ≥ 80 | ≥ 80 |  | ≥ 80
11 | Cc1cccc2c(C3=NC(C)(C)C(F)(F)c4ccccc43)cnn12 [Compound E-66, 4,4-difluoro-3,3-dimethyl-1-(7-methylpyrazolo[1,5-a]pyridin-3-yl)isoquinoline] |  | ≥ 80 | ≥ 80 | ≥ 80 | ≥ 80 | ≥ 50 | ≥ 80 | ≥ 80 |  | ≥ 80
12 | Cc1cccc2c(C3=NC(C)(C)C(=O)c4ccccc43)cnn12 [Compound E-67, 3,3-dimethyl-1-(7-methylpyrazolo[1,5-a]pyridin-3-yl)isoquinolin-4-one] |  | ≥ 80 | ≥ 80 | ≥ 80 | ≥ 80 |  |  | ≥ 80 | 110 to 112 | ≥ 80
13 | Cc1cccn2ncc(C3=NC(C)(C)C(F)(F)c4ccccc43)c12 [Compound E-69, 4,4-difluoro-3,3-dimethyl-1-(4-methylpyrazolo[1,5-a]pyridin-3-yl)isoquinoline] |  | ≥ 80 | ≥ 80 | ≥ 80 | ≥ 80 | ≥ 50 | ≥ 80 | ≥ 80 | 113 to 114 | ≥ 80
14 | Cc1ccc2c(C3=NC(C)(C)C(F)(F)c4cc(F)ccc43)cnn2c1C [Compound E-70, 1-(6,7-dimethylpyrazolo[1,5-a]pyridin-3-yl)-4,4,6-trifluoro-3,3-dimethyl-isoquinoline] |  | ≥ 80 | ≥ 80 | ≥ 80 | ≥ 80 | ≥ 50 |  | ≥ 80 |  | ≥ 80
15 | Cc1ccc2c(C3=NC(C)(C)C(F)(F)c4c(F)cccc43)cnn2c1C [Compound E-71, 1-(6,7-dimethylpyrazolo[1,5-a]pyridin-3-yl)-4,4,5-trifluoro-3,3-dimethyl-isoquinoline] |  | ≥ 80 | ≥ 80 | ≥ 80 | ≥ 80 | ≥ 50 | ≥ 80 | ≥ 80 |  | ≥ 80
16 | Cc1ccc2c(C3=NC(C)(C)C(=O)c4c(F)cccc43)cnn2c1C [Compound E-72, 1-(6,7-dimethylpyrazolo[1,5-a]pyridin-3-yl)-5-fluoro-3,3-dimethyl-isoquinolin-4-one] |  | ≥ 80 | ≥ 80 | ≥ 80 | ≥ 80 |  |  | ≥ 80 | 139 to 141 | ≥ 80
17 | Cc1c(Br)ccc2c(C3=NC(C)(C)C(F)(F)c4ccccc43)cnn12 [Compound E-79, 1-(6-bromo-7-methyl-pyrazolo[1,5-a]pyridin-3-yl)-4,4-difluoro-3,3-dimethyl-isoquinoline] |  | ≥ 80 | ≥ 80 |  | ≥ 80 |  | ≥ 80 | ≥ 80 | 180 to 182 | ≥ 80
18 | CC1(C)N=C(c2cnn3cccc(F)c23)c2ccccc2C1(F)F [Compound E-89, 4,4-difluoro-1-(4-fluoropyrazolo[1,5-a]pyridin-3-yl)-3,3-dimethyl-isoquinoline] |  | ≥ 80 | ≥ 80 | ≥ 80 | ≥ 80 |  |  | ≥ 80 |  | ≥ 80
19 | Cc1c(Cl)ccc2c(C3=NC(C)(C)C(F)(F)c4ccccc43)cnn12 [Compound E-91, 1-(6-chloro-7-methyl-pyrazolo[1,5-a]pyridin-3-yl)-4,4-difluoro-3,3-dimethyl-isoquinoline] |  | ≥ 80 | ≥ 80 | ≥ 80 | ≥ 80 | ≥ 50 | ≥ 80 | ≥ 80 | 166 to 168 | ≥ 80
20 | COc1cccc2c(C3=NC(C)(C)C(F)(F)c4ccccc43)cnn12 [Compound E-92, 4,4-difluoro-1-(7-methoxypyrazolo[1,5-a]pyridin-3-yl)-3,3-dimethyl-isoquinoline] |  | ≥ 80 | ≥ 80 | ≥ 80 | ≥ 80 | ≥ 50 | ≥ 80 | ≥ 80 | 120 to 124 | 
21 | Cc1ccc2c(C3=NC4(CC4)C4(CC4)c4ccccc43)cnn2c1C [Compound E-94] |  | ≥ 80 |  | ≥ 80 | ≥ 80 | ≥ 50 | ≥ 80 | ≥ 80 |  | 

Reference: patent publication US10906897B2, “Microbiocidal heterobicyclic derivatives” (priority 2015, dated 2021)
